The source of these data is patent publication US20240180880A1, “METHODS OF USING EHMT2 INHIBITORS IN TREATING OR PREVENTING BLOOD DISORDERS” (Epizyme, Inc., priority 2017, published 2024).

The subject of assay [1] is Human CD34+ progenitor cells. The assay can be described thus: Human CD34+ progenitors assay for fetal hemoglobin induction, % HbF+ cells by FACS (healthy donors). The assay is classed as cell-based. As to conditions: for Observed Induction of % HbF + Human Erythroid Progenitors: evaluated in the context of cell viability; for % HbF+ cells: 26% basal level. The source says: An in-vitro system to test the ability of compound to induce fetal hemoglobin expression was developed. This system used Human CD34+ progenitor cells freshly isolated from healthy donors blood collections. Peripheral blood mononuclear cells (PBMCs) were isolated from whole blood by density gradient centrifugation using SepMatem-50 and Lymphoprep™ from Stem Cell Technologies. CD34^+ hematopoietic progenitor cells (HSPCs) were isolated from PBMCs by magnetic separation using Stem Cells Technologies CD34+ positive selection/isolation kit (Stem Cell Technologies, #18056). CD34 cells were cultured using a 2-phase 14 day culture system. During phase 1 (day 0 to day 7) cells were expanded. Expansion was followed by phase 2 (day 7 to day 14) where cells were differentiated toward the erythroid lineage. Compounds were added on day 1 and day 7 as 1000× stock after being diluted in dimethyl sulfoxide (DMSO) in a 3-fold series. Final DMSO concentration in the assay was 0.1%. At day 14 cells were harvested for Fluorescent Activated Cell Sorting (FACS) analysis and for HbF quantitation by Mass spectrometry. For cell surface and intracellular marker analysis by FACS, cells were fixed and stained with a cocktail of antibodies covering erythroid lineage markers, HbF and H3 and H3K9me2 (Table 11). Data was collected using Canto II flow cytometer (BD Biosciences) and the FACSDiva software. Data was analyzed using FlowJo software. % HbF^+ cells and ratios H3/H3K9me2 intensities were calculated for CD71^+/CD235a^+ gated populations.
A list of pharmacological agents was evaluated for their potential to induce fetal Hemoglobin (HbF) in order to identify combination partners for our EHMT1/2 inhibitors. HbF can be induced by toxicity; therefore, the potential of the agents to induce HbF were evaluated in the context of cell viability. (Table 12). The EHMT1/2 inhibitor Compound 205 was evaluated in combination with a fixed dose of 10 μM Hydroxyurea and 0.1 μM Pomalidomide. […] 10 μM Hydroxyurea as a single agent was able to induce 01% HbF^+ cells from 26% basal level to 45% while 0.016 μM compound 205 as a single agent induced to 45%. In combination these two agents were able to induced % HbF^+ to 63% (FIG. 3A). […] 0.1 μM Pomalidomide as a single agent was able to induce ° % HbF cells from 26% basal level to 48% while 0.016 μM compound 205 as a single agent induced to 45%. In combination these two agents were able to induce % HbF^+ to 78% (FIG. 3B).
Hydroxyurea was also evaluated as single agent and in combination with the EHMT1/2 inhibitor compound 205 in a matrix format using CD34^+ cells isolated from a pool of 5 healthy donors. […] (FIG. 4 and FIG. 5, respectively). It is noted that for Loewe excess determination in Chalice, data was normalized to the highest and lowest Hbγ induction observed under the conditions and dose ranges in the assay.
A general note: Flow cytometry measures light scatter and fluorescence of single cells or particles in a stream.

Assay [2] has as its system human CD34+ progenitor cells isolated from SCD donors. As to the kind of experiment: HbF pan-cellular induction by FACS in human CD34+ progenitor cells isolated from SCD donors. Format: cell-based.

Structures are written as SMILES.

As for `NC(CO)C(=O)NNCc1ccc(O)c(O)c1O` (stereo not shown) [Benzerazide], the “Observed Induction of % HbF + Human Erythroid Progenitors” value in assay [1] is “Very small”. Consider `Nc1cccc2c1C(=O)N(C1CCC(=O)NC1=O)C2=O` (stereo not shown) [Pomalidomide, pomalidomide], for which the “% HbF+ cells” value in assay [1] (0.1 μM Pomalidomide as a single agent) is reported as 48%. Moreover, the “Observed Induction of % HbF + Human Erythroid Progenitors” value in assay [1] is recorded as “Yes”. On to `Clc1ccc2c(c1)CCc1cccnc1C2=C1CCNCC1` [Desloratidine, desloratidine], for which the “Observed Induction of % HbF + Human Erythroid Progenitors” value in assay [1] is on record as “No”. On the same count and under the same terms, next, `Nc1ccccc1NC(=O)c1cnccn1` [BG-45]: “Yes”.

In the case of `CNc1cc(C)nc(Nc2ccc(OC)c(OC[C@H](O)CN3CCC3)c2)n1` [Compound D5R], in assay [2] (0.012 μM Compound D5R), the “Fluorescence Intensity at which most of the positive cells are concentrated” value was ~10(3). The “% of HbF expressing cells” value in assay [2] (0.012 μM Compound D5R, DMSO baseline 42.7%) is recorded as 98.1%; in assay [2] (10 μM Hydroxyurea in combination with 0.012 μM Compound D5R, DMSO baseline 42.7%), 99.8%. Moreover, in assay [2] (Compound D5R dose response range (FIG. 6 ii-vi), DMSO baseline 42.7%), the “% HbF+ cells” value is listed as greater than 98%. For `CN(C)C(=N)N=C(N)N` [Metformin], the “Observed Induction of % HbF + Human Erythroid Progenitors” value in assay [1] is given as “Yes”. Still for that read-out and setting: next, `O=C(CCCCCCC(=O)Nc1ccccc1)NO` [Vorinostat, vorinostat]: “No”. On the same count and under the same terms, the result for `Nc1ccccc1NC(=O)c1ccc(CNC(=O)OCc2cccnc2)cc1` [Entinostat, entinostat] reads “Yes”.

`NC(=O)NO` [Hydroxyurea, hydroxyurea, reference compound]: in assay [2] (10 μM Hydroxyurea), the “Fluorescence Intensity at which most of the positive cells are concentrated” value was ~10(4). The “% of HbF expressing cells” value in assay [2] (10 μM Hydroxyurea, DMSO baseline 42.7%) was 78.1%. Moreover, the “% HbF+ cells” value in assay [1] (10 μM Hydroxyurea as a single agent) was determined as 45%. Moreover, the “Observed Induction of % HbF + Human Erythroid Progenitors” value in assay [1] is on record as “Yes”.
